How the values were obtained:
[1] = target: Epidermal growth factor receptor (Homo sapiens, UniProt P00533); assay: Inhibition of N-terminal GST-fused human EGFR (His672 to Ala1210 residues) expressed in baculovirus expression system using biotinylated PTP1B at Tyr66 as substrate preincubated for 5 mins followed by substrate addition measured after 30 mins by DELFIA
[2] = target: Vascular endothelial growth factor receptor 2 (Homo sapiens, UniProt P35968); assay: Inhibition of N-terminal GST-His6-thrombin cleavage site-fused human VEGFR2 (Asp805 to Val1356 residues) expressed in baculovirus expression system using biotinylated gastrin precursor at Tyr87 as substrate preincubated for 5 mins followed by substrate addition measured after 30 mins by DELFIA method
Vascular endothelial growth factor receptor 2, sequence (P35968 whole entry, the tested form may be a part): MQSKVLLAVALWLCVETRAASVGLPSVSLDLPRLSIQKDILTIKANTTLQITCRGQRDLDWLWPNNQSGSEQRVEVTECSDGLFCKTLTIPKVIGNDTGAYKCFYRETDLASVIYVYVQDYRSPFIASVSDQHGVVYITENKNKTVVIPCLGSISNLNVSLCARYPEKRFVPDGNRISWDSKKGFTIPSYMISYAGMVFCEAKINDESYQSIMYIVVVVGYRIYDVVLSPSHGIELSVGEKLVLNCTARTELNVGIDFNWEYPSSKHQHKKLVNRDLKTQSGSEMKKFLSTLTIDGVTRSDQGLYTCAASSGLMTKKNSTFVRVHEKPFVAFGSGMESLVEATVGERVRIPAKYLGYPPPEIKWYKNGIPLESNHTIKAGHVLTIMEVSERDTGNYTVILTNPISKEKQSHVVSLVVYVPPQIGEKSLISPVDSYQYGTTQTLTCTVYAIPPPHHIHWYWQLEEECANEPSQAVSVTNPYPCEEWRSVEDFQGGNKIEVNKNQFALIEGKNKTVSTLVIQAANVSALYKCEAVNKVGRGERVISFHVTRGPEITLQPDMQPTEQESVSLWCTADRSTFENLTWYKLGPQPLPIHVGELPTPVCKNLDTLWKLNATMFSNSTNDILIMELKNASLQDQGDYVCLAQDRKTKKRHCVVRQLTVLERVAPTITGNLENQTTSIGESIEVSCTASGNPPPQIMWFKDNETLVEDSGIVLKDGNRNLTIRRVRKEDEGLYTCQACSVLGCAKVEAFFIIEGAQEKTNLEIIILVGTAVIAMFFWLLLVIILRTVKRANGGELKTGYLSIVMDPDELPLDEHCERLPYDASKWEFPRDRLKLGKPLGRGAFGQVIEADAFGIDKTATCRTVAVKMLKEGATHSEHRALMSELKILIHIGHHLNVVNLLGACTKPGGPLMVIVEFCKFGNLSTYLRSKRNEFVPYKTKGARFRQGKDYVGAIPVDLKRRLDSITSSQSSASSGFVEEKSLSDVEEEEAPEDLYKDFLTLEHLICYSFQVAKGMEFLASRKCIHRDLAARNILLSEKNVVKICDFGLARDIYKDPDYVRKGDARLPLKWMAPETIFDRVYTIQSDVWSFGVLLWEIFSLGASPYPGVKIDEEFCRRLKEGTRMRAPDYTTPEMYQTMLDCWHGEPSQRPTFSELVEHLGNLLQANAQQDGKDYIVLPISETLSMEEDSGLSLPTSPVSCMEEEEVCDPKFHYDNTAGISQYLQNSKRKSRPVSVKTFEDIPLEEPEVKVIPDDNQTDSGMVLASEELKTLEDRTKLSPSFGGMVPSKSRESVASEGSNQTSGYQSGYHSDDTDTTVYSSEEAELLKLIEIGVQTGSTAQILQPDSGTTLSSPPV

[3] = target: Receptor tyrosine-protein kinase erbB-2 (Homo sapiens, UniProt P04626); assay: Inhibition of N-terminal GST-tagged human HER2 (Lys676 to Val1255 residues) expressed in baculovirus expression system using biotinylated FLT3 at Tyr589 as substrate preincubated for 5 mins followed by substrate addition measured after 30 mins by DELFIA method
Receptor tyrosine-protein kinase erbB-2, sequence (P04626 whole entry, the tested form may be a part): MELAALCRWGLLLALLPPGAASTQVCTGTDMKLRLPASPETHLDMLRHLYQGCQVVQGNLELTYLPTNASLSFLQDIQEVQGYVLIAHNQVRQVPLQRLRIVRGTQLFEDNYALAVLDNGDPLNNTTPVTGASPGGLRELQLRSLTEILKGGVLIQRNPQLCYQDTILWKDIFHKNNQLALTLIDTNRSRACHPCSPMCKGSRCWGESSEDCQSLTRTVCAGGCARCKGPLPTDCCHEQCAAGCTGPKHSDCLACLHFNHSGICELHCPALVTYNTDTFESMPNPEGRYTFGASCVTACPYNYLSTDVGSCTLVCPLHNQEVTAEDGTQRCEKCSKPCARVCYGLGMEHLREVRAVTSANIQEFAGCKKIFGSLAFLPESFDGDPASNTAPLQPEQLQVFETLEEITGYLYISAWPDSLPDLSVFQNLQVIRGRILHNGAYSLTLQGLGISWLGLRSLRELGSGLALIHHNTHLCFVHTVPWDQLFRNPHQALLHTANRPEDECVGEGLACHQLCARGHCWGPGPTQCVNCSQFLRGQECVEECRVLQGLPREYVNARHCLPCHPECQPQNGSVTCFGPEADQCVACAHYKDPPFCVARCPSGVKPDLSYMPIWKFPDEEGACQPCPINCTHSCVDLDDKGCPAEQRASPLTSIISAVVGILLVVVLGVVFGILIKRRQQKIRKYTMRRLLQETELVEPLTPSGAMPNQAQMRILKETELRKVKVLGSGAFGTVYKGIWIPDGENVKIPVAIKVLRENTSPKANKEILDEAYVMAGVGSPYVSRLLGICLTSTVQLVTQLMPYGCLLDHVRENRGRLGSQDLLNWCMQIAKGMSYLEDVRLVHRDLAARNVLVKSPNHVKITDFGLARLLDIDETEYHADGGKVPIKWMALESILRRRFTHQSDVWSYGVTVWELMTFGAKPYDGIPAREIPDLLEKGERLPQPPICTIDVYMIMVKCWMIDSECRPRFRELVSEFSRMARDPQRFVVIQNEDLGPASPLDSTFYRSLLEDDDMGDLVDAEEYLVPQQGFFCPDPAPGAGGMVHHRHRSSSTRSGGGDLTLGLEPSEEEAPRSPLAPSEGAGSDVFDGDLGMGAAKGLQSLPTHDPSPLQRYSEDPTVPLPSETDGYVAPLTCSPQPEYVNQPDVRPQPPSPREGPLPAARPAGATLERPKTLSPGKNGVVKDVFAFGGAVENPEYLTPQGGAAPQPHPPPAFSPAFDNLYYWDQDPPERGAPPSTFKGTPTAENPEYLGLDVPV

[4] = target: Platelet-derived growth factor receptor beta (Homo sapiens, UniProt P09619); assay: Inhibition of N-terminal GST-His6-thrombin cleavage site-fused human PDGFRbeta (Arg561 to Leu1106 residues) assessed as decrease in biotinylated FLT3 phosphorylation at Tyr589 preincubated for 5 mins followed by substrate addition measured after 30 mins by DELFIA method
Platelet-derived growth factor receptor beta, sequence (P09619 whole entry, the tested form may be a part): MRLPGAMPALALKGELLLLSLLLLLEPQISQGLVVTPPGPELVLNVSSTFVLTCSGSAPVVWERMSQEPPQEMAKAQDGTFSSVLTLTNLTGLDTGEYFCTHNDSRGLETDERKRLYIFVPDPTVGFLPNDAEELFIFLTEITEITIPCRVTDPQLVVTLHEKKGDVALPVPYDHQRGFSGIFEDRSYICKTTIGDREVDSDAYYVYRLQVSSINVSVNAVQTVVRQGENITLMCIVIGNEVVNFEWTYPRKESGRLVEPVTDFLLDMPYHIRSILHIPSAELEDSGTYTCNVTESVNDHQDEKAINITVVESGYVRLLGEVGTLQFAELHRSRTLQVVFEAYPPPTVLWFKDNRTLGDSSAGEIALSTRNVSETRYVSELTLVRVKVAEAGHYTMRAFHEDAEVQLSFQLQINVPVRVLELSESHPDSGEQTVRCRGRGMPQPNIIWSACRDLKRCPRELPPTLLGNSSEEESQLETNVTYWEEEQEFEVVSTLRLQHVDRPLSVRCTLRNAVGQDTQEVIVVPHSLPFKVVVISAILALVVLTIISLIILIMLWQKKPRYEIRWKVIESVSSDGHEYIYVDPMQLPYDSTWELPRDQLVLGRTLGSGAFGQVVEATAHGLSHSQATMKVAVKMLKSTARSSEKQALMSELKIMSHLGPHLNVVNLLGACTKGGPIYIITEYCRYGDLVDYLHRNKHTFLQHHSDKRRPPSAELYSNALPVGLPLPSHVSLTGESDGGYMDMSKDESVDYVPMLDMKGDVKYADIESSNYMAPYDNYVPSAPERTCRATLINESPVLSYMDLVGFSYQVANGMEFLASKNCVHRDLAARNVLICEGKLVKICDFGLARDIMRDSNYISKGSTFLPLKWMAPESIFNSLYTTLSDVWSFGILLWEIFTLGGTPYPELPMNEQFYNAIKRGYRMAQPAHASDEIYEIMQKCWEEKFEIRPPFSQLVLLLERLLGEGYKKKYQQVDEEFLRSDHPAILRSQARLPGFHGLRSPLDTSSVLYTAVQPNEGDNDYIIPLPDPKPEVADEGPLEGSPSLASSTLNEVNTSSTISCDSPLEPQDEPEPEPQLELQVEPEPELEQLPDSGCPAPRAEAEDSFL

[5] = target: Proto-oncogene tyrosine-protein kinase Src (Homo sapiens, UniProt P12931); assay: (§1) Inhibition of human N-terminal GST-tagged full length human Src (Met1 to Leu536 residues) expressed in baculovirus expression system assessed as decrease in biotin signal transduction protein phosphorylation at Tyr160 preincubated for 5 mins followed by substrate addition measured after 30 mins by DELFIA method
Proto-oncogene tyrosine-protein kinase Src, sequence (P12931 2-536 limits assumed): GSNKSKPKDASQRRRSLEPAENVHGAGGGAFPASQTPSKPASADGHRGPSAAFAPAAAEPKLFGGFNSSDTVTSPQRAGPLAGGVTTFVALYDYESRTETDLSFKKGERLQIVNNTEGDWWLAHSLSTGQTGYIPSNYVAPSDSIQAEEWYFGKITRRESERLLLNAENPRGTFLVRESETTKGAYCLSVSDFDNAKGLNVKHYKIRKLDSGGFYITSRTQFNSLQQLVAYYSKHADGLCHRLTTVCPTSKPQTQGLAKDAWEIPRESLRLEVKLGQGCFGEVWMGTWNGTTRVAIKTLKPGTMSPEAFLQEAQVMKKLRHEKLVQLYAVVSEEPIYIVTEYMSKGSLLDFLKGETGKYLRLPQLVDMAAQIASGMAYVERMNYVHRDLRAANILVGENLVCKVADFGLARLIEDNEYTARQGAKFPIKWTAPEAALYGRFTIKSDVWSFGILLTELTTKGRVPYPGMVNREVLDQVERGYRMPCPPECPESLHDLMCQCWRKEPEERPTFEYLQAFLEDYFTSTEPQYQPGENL

[6] = target: Tyrosine-protein kinase ABL1 (Homo sapiens, UniProt P00519); assay: as §1, with “GST-tagged” for “GST-tagged full length”, “Abl1 (Pro118” for “Src (Met1”, “Ser553” for “Leu536”

IC50 [2] [nM] | IC50 [3] [nM] | IC50 [4] [nM] | IC50 [5] [nM] | IC50 [6] [nM] | SMILES | IC50 [1] [nM]
1000 to 10000 | ≤ 100 |  |  |  | C[C@@H](Nc1ncnc2[nH]c(-c3ccc(OCC(=O)NO)cc3)cc12)c1ccccc1 | ≤ 100
≤ 100 |  | ≤ 100 |  |  | Cc1[nH]c(/C=C2\C(=O)Nc3ccc(F)cc32)c(C)c1C(=O)NCCCCCC(=O)NO | 
 | ≤ 100 |  |  |  | C[C@@H](Nc1ncnc2[nH]c(-c3ccc(CN4CCC(NCCCCCCCC(=O)NO)CC4)cc3)cc12)c1ccccc1 | 
≤ 100 |  |  |  |  | Cc1[nH]c(/C=C2\C(=O)Nc3ccc(F)cc32)c(C)c1C(=O)NCCCCCC(=O)N(C)O | 
100 to 1000 | 100 to 1000 |  |  |  | O=C(CCCCCN1CCN(Cc2ccc(-c3cc4c(NCc5ccccc5)ncnc4[nH]3)cc2)CC1)NO | 100 to 1000
 | ≤ 100 |  |  |  | O=C(CCCCCCOc1ccc2ncnc(Nc3ccc(OCc4cccc(F)c4)c(Cl)c3)c2c1)NO | 
100 to 1000 |  |  |  |  | O=C(CCCCCCCNCc1cc(Oc2ccc(NC(=O)Nc3ccc(Cl)c(C(F)(F)F)c3)cc2)ccn1)NO | 
 |  |  | ≤ 100 | ≤ 100 | Cc1nc(Nc2ncc(C(=O)Nc3c(C)cccc3Cl)s2)cc(N2CCN(CCCC(=O)NO)CC2)n1 | 
100 to 1000 | 100 to 1000 |  |  |  | C[C@@H](Nc1ncnc2[nH]c(-c3ccc(CN4CCN(CCCCCC(=O)NO)CC4)cc3)cc12)c1ccccc1 | 
≤ 100 |  |  |  |  | O=C(CCCC(=O)NCc1cc(Oc2ccc(NC(=O)Nc3ccc(Cl)c(C(F)(F)F)c3)cc2)ccn1)NO | 
 |  | ≤ 100 | ≤ 100 | ≤ 100 | Cc1nc(Nc2ncc(C(=O)Nc3c(C)cccc3Cl)s2)cc(N2CCN(CC(=O)NO)CC2)n1 | 
 | ≤ 100 |  |  |  | COc1cc2ncnc(Nc3ccc(F)c(Cl)c3)c2cc1SCCCCCCC(=O)NO | 
 | ≤ 100 |  |  |  | C#Cc1cccc(Nc2ncnc3cc(OC)c(OCC(=O)NO)cc23)c1 | 
 | 100 to 1000 |  |  |  | COCCOc1cc2ncnc(Nc3ccc(F)c(Cl)c3)c2cc1OCCCCCCC(=O)NO | 
≥ 10000 | ≥ 10000 |  |  |  | C[C@@H](Nc1ncnc2[nH]c(-c3ccc(CNCc4ccc(/C=C/C(=O)NO)cc4)cc3)cc12)c1ccccc1 | ≥ 10000
≤ 100 |  | 100 to 1000 |  |  | Cc1[nH]c(/C=C2\C(=O)Nc3ccc(F)cc32)c(C)c1C(=O)NCCCCCCC(=O)NO | 
 |  |  | 100 to 1000 | 100 to 1000 | Cc1nc(N)cc(N(CC(=O)NO)c2ncc(C(=O)Nc3c(C)cccc3Cl)s2)n1 | 
 | 100 to 1000 |  |  |  | C#Cc1cccc(Nc2ncnc3cc(OCCCCCCC(=O)NO)c(OCCOC)cc23)c1 | 
 | ≤ 100 |  |  |  | O=C(CCCCCNCc1ccc(-c2ccc3ncnc(Nc4ccc(OCc5cccc(F)c5)c(Cl)c4)c3c2)o1)NO | 
 | ≤ 100 |  |  |  | COc1cc2ncnc(Nc3ccc(OCc4cccc(F)c4)c(Cl)c3)c2cc1OCCCCCCC(=O)NO | 
≤ 100 |  | ≤ 100 |  |  | Cc1[nH]c(/C=C2\C(=O)Nc3ccc(F)cc32)c(C)c1C(=O)NCCCC(=O)NO | 
100 to 1000 | ≤ 100 |  |  |  | C[C@@H](Nc1ncnc2[nH]c(-c3ccc(CN4CCN(CCCC(=O)NO)CC4)cc3)cc12)c1ccccc1 | ≤ 100

IC50 [2] [nM] | IC50 [3] [nM] | IC50 [4] [nM] | IC50 [5] [nM] | IC50 [6] [nM] | SMILES | IC50 [1] [nM]
100 to 1000 |  |  |  |  | O=C(CCCCCCNCc1cc(Oc2ccc(NC(=O)Nc3ccc(Cl)c(C(F)(F)F)c3)cc2)ccn1)NO | 
≤ 100 |  |  |  |  | Cc1[nH]c(/C=C2\C(=O)Nc3ccc(F)cc32)c(C)c1C(=O)NCCOc1ccc(/C=C/C(=O)NO)cc1 | 
1000 to 10000 |  |  |  |  | C[C@@H](Nc1ncnc2[nH]c(-c3ccc(NCc4ccc(/C=C/C(=O)NO)cc4)cc3)cc12)c1ccccc1 | ≤ 100
 | 100 to 1000 |  |  |  | COCCOc1cc2c(Nc3ccc(F)c(Cl)c3)ncnc2cc1OCCCCCCC(=O)NO | 
100 to 1000 | ≤ 100 |  |  |  | COc1cc2ncnc(Nc3ccc(F)c(Cl)c3)c2cc1OCCCCCCC(=O)NO | 3.1
100 to 1000 | ≤ 100 |  |  |  | C[C@@H](Nc1ncnc2[nH]c(-c3ccc(NCCCCCCC(=O)NO)cc3)cc12)c1ccccc1 | ≤ 100
 | ≤ 100 |  |  |  | C#Cc1cc(Nc2ncnc3cc(OC)c(OCCCCCCC(=O)NO)cc23)ccc1O | 
 | 100 to 1000 |  |  |  | C#Cc1cccc(Nc2ncnc3cc(OC)c(NC(=O)CCCCCCC(=O)NO)cc23)c1 | 
 | 100 to 1000 |  |  |  | C#Cc1cccc(Nc2ncnc3cc(OCCCCCCC(=O)NO)c(OC)cc23)c1 | 
 |  |  | ≤ 100 | ≤ 100 | Cc1nc(NCCNCC(=O)NO)cc(Nc2ncc(C(=O)Nc3c(C)cccc3Cl)s2)n1 | 
≤ 100 |  |  |  |  | O=C(CCCCOc1cc(Oc2ccc(NC(=O)Nc3ccc(Cl)c(C(F)(F)F)c3)cc2)ccn1)NO | 
100 to 1000 | 100 to 1000 |  |  |  | C[C@@H](Nc1ncnc2[nH]c(-c3ccc(CN4CCN(CCCCC(=O)NO)CC4)cc3)cc12)c1ccccc1 | ≤ 100
 | 100 to 1000 |  |  |  | COc1cc2c(Nc3ccc(F)c(Cl)c3)ncnc2cc1OCCCCCCC(=O)NO | 
≤ 100 |  | 100 to 1000 |  |  | Cc1[nH]c(/C=C2\C(=O)Nc3ccc(F)cc32)c(C)c1C(=O)NCCCCCCCC(=O)NO | 
 | ≤ 100 |  |  |  | C[C@@H](Nc1ncnc2[nH]c(-c3ccc(OCCNCCCCCCCC(=O)NO)cc3)cc12)c1ccccc1 | 
1000 to 10000 |  |  |  |  | O=C(Nc1ccc(Oc2ccnc(C(=O)NO)c2)cc1)Nc1ccc(Cl)c(C(F)(F)F)c1 | 
≤ 100 | ≤ 100 |  |  |  | C[C@@H](Nc1ncnc2[nH]c(-c3ccc(NCCCCCC(=O)NO)cc3)cc12)c1ccccc1 | ≤ 100
≤ 100 |  |  |  |  | O=C(CCCC(=O)Nc1cc(Oc2ccc(NC(=O)Nc3ccc(Cl)c(C(F)(F)F)c3)cc2)ccn1)NO | 
100 to 1000 | ≤ 100 |  |  |  | C[C@@H](Nc1ncnc2[nH]c(-c3ccc(CN4CCN(CCCCCCC(=O)NO)CC4)cc3)cc12)c1ccccc1 | ≤ 100
100 to 1000 | ≤ 100 |  |  |  | C[C@@H](Nc1ncnc2[nH]c(-c3ccc(C(=O)NO)cc3)cc12)c1ccccc1 | ≤ 100
≤ 100 | ≤ 100 |  |  |  | C[C@@H](Nc1ncnc2[nH]c(-c3ccc(OCCNCCCCCCC(=O)NO)cc3)cc12)c1ccccc1 | ≤ 100

SMILES | IC50 [2] [nM] | IC50 [3] [nM] | IC50 [4] [nM] | IC50 [5] [nM] | IC50 [6] [nM] | IC50 [1] [nM]
C[C@@H](Nc1ncnc2[nH]c(-c3ccc(OCCCCC(=O)NO)cc3)cc12)c1ccccc1 | 100 to 1000 | 100 to 1000 |  |  |  | ≤ 100
C[C@@H](Nc1ncnc2[nH]c(-c3ccc(CNCCCCCCC(=O)NO)cc3)cc12)c1ccccc1 | 100 to 1000 | 100 to 1000 |  |  |  | ≤ 100
C[C@@H](Nc1ncnc2[nH]c(-c3ccc(OCCCC(=O)NO)cc3)cc12)c1ccccc1 | 100 to 1000 | 100 to 1000 |  |  |  | ≤ 100
COc1cc2ncnc(Nc3ccc(F)c(Cl)c3)c2cc1SCCCCC(=O)NO |  | ≤ 100 |  |  |  | 
C[C@@H](Nc1ncnc2[nH]c(-c3ccc(C(=O)NCCNCCC(=O)NO)cc3)cc12)c1ccccc1 | 100 to 1000 | 100 to 1000 |  |  |  | ≤ 100
C[C@@H](Nc1ncnc2[nH]c(-c3ccc(OCCCCCCC(=O)NO)cc3)cc12)c1ccc(F)cc1 | 1000 to 10000 | 100 to 1000 |  |  |  | 100 to 1000
C[C@@H](Nc1ncnc2[nH]c(-c3ccc(NC(=O)CCC(=O)NO)cc3)cc12)c1ccccc1 | 100 to 1000 | 100 to 1000 |  |  |  | ≤ 100
C[C@@H](Nc1ncnc2[nH]c(-c3ccc(NC(=O)CCCCCCC(=O)NO)cc3)cc12)c1ccccc1 | 100 to 1000 | 100 to 1000 |  |  |  | ≤ 100
C[C@@H](Nc1ncnc2[nH]c(-c3ccc(C(=O)NCCNCCCCCCC(=O)NO)cc3)cc12)c1ccccc1 | 100 to 1000 | 100 to 1000 |  |  |  | ≤ 100
C[C@@H](Nc1ncnc2[nH]c(-c3ccc(CNCc4ccc(C(=O)NO)cc4)cc3)cc12)c1ccccc1 | 100 to 1000 | 100 to 1000 |  |  |  | ≤ 100
C[C@@H](Nc1ncnc2[nH]c(-c3ccc(NC(=O)CCCCC(=O)NO)cc3)cc12)c1ccccc1 | 100 to 1000 | 100 to 1000 |  |  |  | ≤ 100
O=C(CCCCCCOc1ccc(-c2cc3c(NCc4ccccc4)ncnc3[nH]2)cc1)NO | 1000 to 10000 | 1000 to 10000 |  |  |  | 100 to 1000
C[C@@H](Nc1ncnc2[nH]c(-c3ccc(NCc4ccc(C(=O)NO)cc4)cc3)cc12)c1ccccc1 | 1000 to 10000 | 100 to 1000 |  |  |  | ≤ 100
C[C@@H](Nc1ncnc2[nH]c(-c3ccc(C(=O)NCCNCCCCCC(=O)NO)cc3)cc12)c1ccccc1 | 100 to 1000 | 100 to 1000 |  |  |  | ≤ 100
C[C@@H](Nc1ncnc2c1cc(-c1ccc(C(=O)NCCNCCCCCCC(=O)NO)cc1)n2C)c1ccccc1 | 1000 to 10000 | 100 to 1000 |  |  |  | 
C[C@@H](Nc1ncnc2[nH]c(-c3ccc(OCCCCCCC(=O)NO)cc3)cc12)c1ccccc1 | ≤ 100 | 100 to 1000 |  |  |  | ≤ 100
C[C@@H](Nc1ncnc2[nH]c(-c3ccc(CNCC(=O)NO)cc3)cc12)c1ccccc1 |  | 1000 to 10000 |  |  |  | 1000 to 10000
C[C@@H](Nc1ncnc2[nH]c(-c3ccc(OCCCCCC(=O)NO)cc3)cc12)c1ccccc1 | 1000 to 10000 | 100 to 1000 |  |  |  | ≤ 100
C[C@@H](Nc1ncnc2[nH]c(-c3ccc(CNCCCCCC(=O)NO)cc3)cc12)c1ccccc1 | 100 to 1000 | 100 to 1000 |  |  |  | ≤ 100
C[C@@H](Nc1ncnc2[nH]c(-c3ccc(CN4CCN(CCC(=O)NO)CC4)cc3)cc12)c1ccccc1 | 100 to 1000 | ≤ 100 |  |  |  | ≤ 100
C[C@@H](Nc1ncnc2[nH]c(-c3ccc(NC(=O)CCCC(=O)NO)cc3)cc12)c1ccccc1 | 100 to 1000 | 100 to 1000 |  |  |  | ≤ 100
